We go through 35 compounds from patent US5795756A, “Method and compounds for the inhibition of adenylyl cyclase” (priority 1996, dated 1998).

Like-named read-outs stand apart in the source and are kept apart here.

One experiment has as its system adenylyl cyclases. As to conditions: related art, cited from earlier work; for inhibition of adenylyl cyclases via P-site: in words; for IC50: read-out: IC50 for inhibition of adenylyl cyclases.
For experiment [1], the target named is rat brain adenylyl cyclase. As to the kind of experiment: Inhibition of detergent-dispersed rat brain adenylyl cyclase (Table I). It counts as biochemical. As to conditions: for inhibition of adenylyl cyclase activity compared with adenosine: in words, relative to adenosine. Here is the method:
Detergent-dispersed adenylyl cyclase from rat brain was prepared as previously described^58. Activities were determined in a reaction mixture containing 50 mM N-[2-hydroxyethyl]-piperazine-N'-[2-ethanesulfonic acid] (HEPES) or 50 mM triethanolamine.cndot.HCl, pH 7.5, 5 mM MnCl2, 100 μM 5'ATP, [α-^32 p]5'ATP (ca. 2 to 5×10^5 dpm), 0.1% (w/v) Lubrol-PX, 1 mM 3-isobutyl-1-methyl-xanthine, 1 mM dithiothreitol, 1 mg bovine serum albumin per ml, 2 mM creatine phosphate, 100 μg creatine kinase per ml, and 100 μM forskolin, in a reaction volume of 100 μl. Reactions were for 15 min at 30° C. and were terminated by the addition of 0.6 ml 120 mM zinc acetate containing 0.5 mM cAMP and 0.5 ml 144 mM sodium carbonate as described by Jakobs et al.^59.
The resulting ZnCO3 precipitate was sedimented by centrifugation in a desktop microfuge. The [^32 P] cAMP in the supernatant fraction was then purified free of residual substrate and other contaminants by sequential chromatography on Dowex-50 and Al2 O3, as described by Salomon et al.^60. [^32 P]cAMP was quantified by Cherenkov radiation in a liquid scintillation spectrometer.
The synthesized adenine derivatives, 1-5, 8, 11-13, 16, 19-21, 34 and 35 were each tested separately in vitro for their ability to inhibit adenylyl cyclase activity by administration of each compound to the above-describedadenylyl cyclase assay.

The target in experiment [2] is adenylyl cyclase, Type I, purified recombinant (Bos taurus, UniProt P19754). Briefly: Inhibition of purified recombinant Type I adenylyl cyclase (Table II). It counts as biochemical. As to conditions: forskolin eluate.
adenylyl cyclase, Type I, purified recombinant, sequence (P19754 whole entry): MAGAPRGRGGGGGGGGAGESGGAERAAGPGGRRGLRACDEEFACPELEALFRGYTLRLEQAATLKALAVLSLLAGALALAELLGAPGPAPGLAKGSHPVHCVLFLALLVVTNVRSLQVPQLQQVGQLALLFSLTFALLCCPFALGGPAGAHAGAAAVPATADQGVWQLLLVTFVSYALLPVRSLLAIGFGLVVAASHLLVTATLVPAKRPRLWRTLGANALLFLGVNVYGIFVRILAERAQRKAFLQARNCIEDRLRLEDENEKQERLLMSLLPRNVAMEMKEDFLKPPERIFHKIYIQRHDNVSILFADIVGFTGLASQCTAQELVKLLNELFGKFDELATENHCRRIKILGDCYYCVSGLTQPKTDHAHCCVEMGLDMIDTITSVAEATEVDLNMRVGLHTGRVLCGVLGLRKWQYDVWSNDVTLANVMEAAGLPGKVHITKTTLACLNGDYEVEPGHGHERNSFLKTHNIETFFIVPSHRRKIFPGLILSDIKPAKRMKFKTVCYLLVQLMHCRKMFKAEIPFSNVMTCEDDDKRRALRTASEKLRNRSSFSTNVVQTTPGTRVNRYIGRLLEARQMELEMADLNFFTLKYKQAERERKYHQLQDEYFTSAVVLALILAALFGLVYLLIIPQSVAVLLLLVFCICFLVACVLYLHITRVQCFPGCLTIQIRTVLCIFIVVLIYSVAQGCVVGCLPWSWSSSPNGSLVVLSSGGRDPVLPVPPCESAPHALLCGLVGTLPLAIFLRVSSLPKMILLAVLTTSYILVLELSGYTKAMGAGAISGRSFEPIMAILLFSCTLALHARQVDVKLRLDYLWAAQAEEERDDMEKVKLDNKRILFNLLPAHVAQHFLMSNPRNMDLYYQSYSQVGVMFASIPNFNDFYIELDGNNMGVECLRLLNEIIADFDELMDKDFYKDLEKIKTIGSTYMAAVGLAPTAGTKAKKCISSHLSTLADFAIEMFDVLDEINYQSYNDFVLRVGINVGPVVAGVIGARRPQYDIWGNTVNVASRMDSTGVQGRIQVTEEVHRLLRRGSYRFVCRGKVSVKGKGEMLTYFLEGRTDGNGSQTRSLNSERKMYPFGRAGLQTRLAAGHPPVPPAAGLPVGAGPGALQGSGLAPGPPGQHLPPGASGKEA
Experiment [3] addresses adenylyl cyclase, bovine brain, purified. Briefly: Inhibition of purified bovine brain adenylyl cyclase (Table II). It counts as biochemical. Conditions: forskolin eluates from forskolin affinity column.
Experiment [4] has as its target rat brain adenylyl cyclase. As to conditions: Table I, footnote a: values from Johnson et al. 1989; read-out: IC50 for inhibition of rat brain adenylyl cyclase; cited from earlier work.
The subject of another experiment is intestinal epithelium. Conditions: cited from earlier work.
A further experiment relates to adenylyl cyclase. As to the kind of experiment: Inhibition of adenylyl cyclase in intact cells and tissues. It counts as cell-based. Conditions: cell permeable variants.
The mark [5] stands for this setting: Table I, 5 mM MnCl2, 100 μM 5'ATP, 100 μM forskolin, pH 7.5, 15 min at 30° C., read-out: IC50 for inhibition of rat brain adenylyl cyclase.
The mark [6] stands for this setting: Table II, rat brain, detergent extract, values from Table I, read-out: IC50, rat brain detergent extract.
Setting [7] is: modified or replaced ribosyl moiety.

For the compound `C[C@H]1O[C@@H](n2cnc3c(N)ncnc32)C[C@@H]1OC(=O)c1ccc(S(=O)(=O)F)cc1` [3'-(4-fluorosulfonylbenzoyl) -2', 5'-dideoxyadenosine], in the experiment on adenylyl cyclases, the “inhibition of adenylyl cyclases via P-site” value is “inhibitory effectiveness”.

For `C[C@H]1O[C@@H](n2cnc3c(N)ncnc32)C[C@@H]1OP(=O)(O)O` [2'5'dd3'AMP], the figures for the IC50 in experiment [1] (setting [5]), in experiment [1] (setting [6]) and in experiment [2] were 0.46 µM, 0.46 µM and 1.99 µM, respectively.

On to `C[C@H]1O[C@@H](n2cnc3c(N)ncnc32)C[C@@H]1OP(=O)(O)OP(=O)(O)O` [Compound 3, 2', 5'-dideoxyadenosine-3'-diphosphate], for which the IC50 (as a rule, the concentration that inhibits the measured activity by half) in experiment [1] (setting [5]) was 0.1 µM; in experiment [1] (setting [6]) it was 0.1 µM; in experiment [2], 0.25 µM; in experiment [3], 0.56 µM.

For the compound `CC(C)CCC[C@@H](C)[C@H]1CC[C@H]2[C@@H]3CC=C4C[C@@H](OP(=O)(O)O[C@H]5C[C@H](n6cnc7c(N)ncnc76)O[C@@H]5C)CC[C@]4(C)[C@H]3CC[C@]12C` [Compound 2, 2', 5'dideoxyadenosine-3'-[(3-cholesteryl)-phosphate]], the IC50 in experiment [1] (setting [5]) is greater than 300 µM. Moreover, the “inhibition of adenylyl cyclase activity compared with adenosine” value (“inhibition … compared with adenosine” for short) in experiment [1] is listed as “less effective than adenosine in the inhibition of adenylyl cyclase activity”.

`Nc1cc[nH]c(=O)n1` [cytosine]: the “inhibition of adenylyl cyclases via P-site” value in the experiment with adenylyl cyclases was “inactive”.

On to `Nc1ncnc2c1ncn2C[C@@H](O)[C@@H](O)C(=O)O` [eritadenine], for which the IC50 in the experiment on adenylyl cyclases (setting [7]) was 6 to 12 µM.

In the case of `C[C@H]1O[C@@H](n2cnc3c(N)ncnc32)C[C@@H]1OP(=O)(O)OCCN(C)S(=O)(=O)c1cccc2c(N(C)C)cccc12` [Compound 1, 2', 5'-dideoxyadenosine-3'-[2-([(5-dimethylamino-1-naphthalenesulfonamido) -(N-methyl)]-aminoethyl)-phosphate]], the IC50 in experiment [1] (setting [5]) was determined as 3 µM. The “inhibition … compared with adenosine” value in experiment [1] is on record as “inhibited adenylyl cyclase activity at concentrations considerably lower than that for adenosine”.

As for `Nc1ncnc2c1ncn2[C@@H]1O[C@H](CO)[C@@H](OP(=O)(O)OP(=O)(O)O)[C@H]1O` [Compound 34, adenosine-3'-diphosphate], the IC50 in experiment [1] (setting [5]) worked out at 3.9 µM.

In the case of `Nc1ncnc2c1ncn2[C@@H]1O[C@H](CO)[C@@H](O)[C@H]1O` [adenosine], the IC50 in experiment [4] is 82 µM.

`Nc1ncnc2c1ncn2[C@H]1C[C@H](OP(O)(O)=S)[C@@H](CO)O1` [Compound 16, 2'-deoxyadenosine-3'-O-thiophosphate]: the “inhibition … compared with adenosine” value in experiment [1] is “inhibited adenylyl cyclase activity at concentrations considerably lower than that for adenosine”.

For `Nc1ncnc2c1ncn2[C@@H]1O[C@H](CO)[C@@H](OP(=O)(O)O)[C@H]1O` [3'AMP], the IC50 in experiment [1] (setting [5]) is 8.9 µM.

As to `Nc1ncnc2c1ncn2[C@H]1C[C@H](OP(=O)(O)O)[C@@H](CO)O1` [2'd3'AMP], the IC50 in experiment [4] was 1.2 µM.

As to `C[C@H]1O[C@@H](n2cnc3c(N)ncnc32)C[C@@H]1OP(O)(O)=S` [Compound 8, 2', 5'-dideoxyadenosine-3'-O-thiophosphate], the “inhibition … compared with adenosine” value in experiment [1] is given as “inhibited adenylyl cyclase activity at concentrations considerably lower than that for adenosine”.

For `Nc1ncnc2c1ncn2[C@@H]1O[C@H](CO)[C@H](O)[C@H]1O` [9-β-D-xylofuranosyl-adenine], the IC50 with adenylyl cyclases (setting [7]) was roughly 25 µM.

On to `CC1CCC(n2cnc3c(N)ncnc32)O1` (centres unmarked) [9-(tetrahydro-5-methyl-2-furyl)-adenine], for which the IC50 in the experiment on adenylyl cyclases (setting [7]) is roughly 8 µM.

Regarding `Nc1ncnc2c1ncn2[C@H]1C[C@H](OP(=O)(O)OP(=O)(O)OP(=O)(O)OP(=O)(O)O)[C@@H](CO)O1` [Compound 13, 2'-deoxyadenosine-3'-tetraphosphate], in experiment [1] (setting [5]), the IC50 came to 0.013 µM.

As to `OC[C@H]1O[C@@H](n2cnc3c(O)ncnc32)[C@H](O)[C@@H]1O` [inosine], the “inhibition of adenylyl cyclases via P-site” value in the experiment on adenylyl cyclases was “inactive”.

Take `C[C@H]1O[C@@H](n2cnc3c(N)ncnc32)C[C@@H]1O` [2',5'-dideoxyadenosine]: the IC50 in experiment [4] was 2.7 µM. Also, in the experiment with intestinal epithelium, the “counteracting effects of cholera intoxication” value is given as “used to counteract the effects of cholera intoxication in intestinal epithelium”.

On to `Nc1ncnc2c1ncn2Cc1ccco1` [9-furfuryl-adenine], for which the IC50 with adenylyl cyclases (unit printed kM) is roughly 26 µM.

In the case of `Nc1ncnc2c1ncn2[C@@H]1O[C@H](CO)[C@@H](O)[C@@H]1O` [9-β-D-arabinofuranosyl-adenine], the IC50 in the experiment on adenylyl cyclases (setting [7]) was roughly 100 µM.

On to `C[C@H]1O[C@@H](n2cnc3c(N)ncnc32)C[C@@H]1OP(=O)(O)OP(=O)(O)OP(=O)(O)OP(=O)(O)O` [Compound 5, 2', 5'-dideoxyadenosine-3'-tetraphosphate], for which the IC50 in experiment [1] (setting [5]) amounted to 0.01 µM.

As for `Nc1ncnc2c1ncn2[C@@H]1O[C@H](CO)[C@@H](OP(=O)(O)OP(=O)(O)OP(=O)(O)O)[C@H]1O` [Compound 35, adenosine-3'-triphosphate], the IC50 in experiment [1] (setting [5]) amounted to 2 µM.

As to `O=c1ccn([C@@H]2O[C@H](CO)[C@@H](O)[C@H]2O)c(=O)[nH]1` [uridine], the “inhibition of adenylyl cyclases via P-site” value with adenylyl cyclases is “inactive”.

On to `Nc1ncnc2c1ncn2C1CCCC1` [9-cyclopentyl-adenine], for which the IC50 in the experiment on adenylyl cyclases (setting [7]) was roughly 20 µM.

Regarding `Nc1nc2c(ncn2[C@@H]2O[C@H](CO)[C@@H](O)[C@H]2O)c(=O)[nH]1` [guanosine], the “inhibition of adenylyl cyclases via P-site” value in the experiment on adenylyl cyclases was “inactive”.

For `C[C@H]1O[C@@H](n2cnc3c(N)ncnc32)C[C@@H]1OP(=O)(O)OP(=O)(O)OP(=O)(O)O` [Compound 4, 2', 5'-dideoxyadenosine-3'-triphosphate], the IC50 amounted to 0.04 µM in experiment [1] (setting [5]), 0.04 µM in experiment [1] (setting [6]), 0.17 µM in experiment [2] and 0.12 µM in experiment [3].

On to `Nc1nc(F)nc2c1ncn2[C@@H]1O[C@H](CO)[C@@H](O)[C@H]1O` [2-fluoroadenosine], for which, in the experiment with adenylyl cyclases, the “inhibition of adenylyl cyclases via P-site” value is “inhibitory”.

`Nc1ncnc2c1ncn2C1CCCO1` (centres unmarked) [9-(tetrahydro-2-furyl)-adenine]: in the experiment on adenylyl cyclases (setting [7]), the IC50 is roughly 10 µM.

For the compound `Nc1nc(F)nc2c1ncn2C1CCCC1` [Compound 19, 9-cyclopentyl-2-fluoro-9H-adenine], in experiment [1], the “inhibition … compared with adenosine” value is recorded as “inhibited adenylyl cyclase activity at concentrations considerably lower than that for adenosine”. Also, the “inhibition of the enzyme in intact cells and tissues” value in the experiment on adenylyl cyclase is “inhibit the enzyme in intact cells and tissues”.

Turning to `Nc1ncnc2c1ncn2[C@H]1C[C@H](OP(=O)(O)OP(=O)(O)O)[C@@H](CO)O1` [Compound 11, 2'-deoxyadenosine-3'-diphosphate], in experiment [1] (setting [5]), the IC50 turned out to be 0.14 µM.

For the compound `Nc1ncnc2c1ncn2[C@H]1C[C@H](OP(=O)(O)OP(=O)(O)OP(=O)(O)O)[C@@H](CO)O1` [Compound 12, 2'-deoxyadenosine-3'-triphosphate], the IC50 in experiment [1] (setting [5]) turned out to be 0.09 µM.

Consider `Nc1nc(F)nc2c1ncn2[C@H]1C[C@H](O)[C@@H](CO)O1` [2-fluoro-2'-deoxyadenosine], for which the “inhibition of adenylyl cyclases via P-site” value with adenylyl cyclases is “inhibitory”.

Take `Cc1cn([C@H]2C[C@H](O)[C@@H](CO)O2)c(=O)[nH]c1=O` [thymidine]: the “inhibition of adenylyl cyclases via P-site” value in the experiment on adenylyl cyclases was “inactive”.

With `Nc1ncnc2c1ncn2[C@H]1C[C@H](O)[C@@H](CO)O1` [2'-deoxyadenosine], the IC50 in experiment [4] is 15 µM.

In the case of `C[C@H]1O[C@@H](n2cnc3c(N)ncnc32)C[C@@H]1OC(=O)CCC(=O)O` [3'-succinyl-2', 5'-dideoxyadenosine], in the experiment on adenylyl cyclases, the “inhibition of adenylyl cyclases via P-site” value is “inhibitory effectiveness”.
